# Laboratory results as given in patent US20210254272A1, “TEXTILES HAVING ANTIMICROBIAL PROPERTIES” (Livinguard AG, priority 2015, published 2021).
# Tested on: E. coli (ATCC 25922)
# Test: AATCC Test Method 100-2012 antibacterial activity of the treated textile, after 25 washes and 12 abrasion cycles, contact time 60 minutes
# Format: cell-based
# Conditions: for Log reduction of antimicrobial performance: 1% o.w.f; for Log reduction of antimicrobial performance in 100 GSM Polyester fabric / Log reduction of antimicrobial performance in 100 GSM cotton fabric / Log reduction of antimicrobial performance in 300 GSM Polyester fabric / Log reduction of antimicrobial performance in 300 GSM cotton fabric / Performance Test-Log reduction of antimicrobial performance: 2 min; for Performance Test-Log reduction of antimicrobial performance: pad process, single agent 5 gm/lit
# Method: The antibacterial activity of the textile was tested in accordance with AATCC Test Method 100-2012. Prior to the test, the fabric was cut into coupons of 2×4 inches and washed separately 25 times, and exposed to 12 abrasion cycles, as per US EPA protocol 90072PA4 (described further below). The tests were made against E. coli (ATCC 25922). Contact time was 60 minutes, after inoculating with 10^8 CFU per coupon.
# [1] = exhaust 80° C., 60 min, curing 180° C., dosage 0.1% o.w.f
# [2] = exhaust 80° C., 60 min, curing 180° C., dosage 0.2% o.w.f
# [3] = exhaust 80° C., 60 min, curing 180° C., dosage 0.5% o.w.f
# [4] = exhaust 80° C., 60 min, curing 180° C., dosage 0.8% o.w.f
# [5] = exhaust 80° C., 60 min, curing 180° C., dosage 1.0% o.w.f
substance,measurement,setting,value
Silver,Log reduction of antimicrobial performance of each active ingredient,"exhaust 60° C., solution dosage 1% o.w.f, process time 60 min",1.1 Log
same,Log reduction of antimicrobial performance of each active ingredient,"exhaust 60° C., solution dosage 1% o.w.f, process time 90 min",1.3 Log
same,Log reduction of antimicrobial performance of each active ingredient,"exhaust 60° C., solution dosage 1% o.w.f, process time 120 min",1.5 Log
same,Log reduction of antimicrobial performance of each active ingredient,"exhaust 60° C., solution dosage 1% o.w.f, process time 180 min",1.8 Log
same,Log reduction of antimicrobial performance of each active ingredient,"exhaust 60° C., solution dosage 1% o.w.f, process time 240 min",1.75 Log
same,Log reduction of antimicrobial performance,"exhaust 80° C., 60 min, curing 170° C., curing dwell time 0.5 min",0.2 Log
same,Log reduction of antimicrobial performance,"exhaust 80° C., 60 min, curing 170° C., curing dwell time 1.0 min",0.5 Log
same,Log reduction of antimicrobial performance,"exhaust 80° C., 60 min, curing 170° C., curing dwell time 1.5 min",0.7 Log
same,Log reduction of antimicrobial performance,"exhaust 80° C., 60 min, curing 170° C., curing dwell time 2.0 min",1.6 Log
same,Log reduction of antimicrobial performance,"exhaust 80° C., 60 min, curing 170° C., curing dwell time 2.5 min",1.1 Log
same,Log reduction of antimicrobial performance,"exhaust 80° C., 60 min, curing 170° C., curing dwell time 3.0 min",0.7 Log
same,Log reduction of antimicrobial performance,"exhaust 80° C., 60 min, curing 180° C., curing dwell time 0.5 min",1.1 Log
same,Log reduction of antimicrobial performance,"exhaust 80° C., 60 min, curing 180° C., curing dwell time 1.0 min",1.3 Log
same,Log reduction of antimicrobial performance,"exhaust 80° C., 60 min, curing 180° C., curing dwell time 1.5 min",1.5 Log
same,Log reduction of antimicrobial performance,"exhaust 80° C., 60 min, curing 180° C., curing dwell time 2.0 min",3.8 Log
same,Log reduction of antimicrobial performance,"exhaust 80° C., 60 min, curing 180° C., curing dwell time 2.5 min",3.7 Log
same,Log reduction of antimicrobial performance,"exhaust 80° C., 60 min, curing 180° C., curing dwell time 3.0 min",3.5 Log
same,Log reduction of antimicrobial performance,"exhaust 80° C., 60 min, curing 190° C., curing dwell time 0.5 min",0.6 Log
same,Log reduction of antimicrobial performance,"exhaust 80° C., 60 min, curing 190° C., curing dwell time 1.0 min",0.9 Log
same,Log reduction of antimicrobial performance,"exhaust 80° C., 60 min, curing 190° C., curing dwell time 1.5 min",1.5 Log
same,Log reduction of antimicrobial performance,"exhaust 80° C., 60 min, curing 190° C., curing dwell time 2.0 min",2.79 Log
same,Log reduction of antimicrobial performance,"exhaust 80° C., 60 min, curing 190° C., curing dwell time 2.5 min",2.2 Log
same,Log reduction of antimicrobial performance,"exhaust 80° C., 60 min, curing 190° C., curing dwell time 3.0 min",1.1 Log
same,Log reduction of antimicrobial performance,"exhaust 80° C., 60 min, curing temperature 100 ° C.",0.21 Log
same,Log reduction of antimicrobial performance,"exhaust 80° C., 60 min, curing temperature 120 ° C.",0.32 Log
same,Log reduction of antimicrobial performance,"exhaust 80° C., 60 min, curing temperature 140 ° C.",0.99 Log
same,Log reduction of antimicrobial performance,"exhaust 80° C., 60 min, curing temperature 160 ° C.",1.04 Log
same,Log reduction of antimicrobial performance,"exhaust 80° C., 60 min, curing temperature 165 ° C.",1.12 Log
same,Log reduction of antimicrobial performance,"exhaust 80° C., 60 min, curing temperature 170 ° C.",1.59 Log
same,Log reduction of antimicrobial performance,"exhaust 80° C., 60 min, curing temperature 175 ° C.",2.05 Log
same,Log reduction of antimicrobial performance,"exhaust 80° C., 60 min, curing temperature 180 ° C.",2.78 Log
same,Log reduction of antimicrobial performance,"exhaust 80° C., 60 min, curing temperature 185 ° C.",2.79 Log
same,Log reduction of antimicrobial performance,"exhaust 80° C., 60 min, curing temperature 190 ° C.",2.8 Log
same,Log reduction of antimicrobial performance,"exhaust 80° C., 60 min, curing temperature 195 ° C.",2.82 Log
same,Log reduction of antimicrobial performance in 100 GSM Polyester fabric,[1],0.56 Log
same,Log reduction of antimicrobial performance in 100 GSM cotton fabric,[1],0.55 Log
same,Log reduction of antimicrobial performance in 300 GSM Polyester fabric,[1],0.54 Log
same,Log reduction of antimicrobial performance in 300 GSM cotton fabric,[1],0.57 Log
same,Log reduction of antimicrobial performance in 100 GSM Polyester fabric,[2],1.45 Log
same,Log reduction of antimicrobial performance in 100 GSM cotton fabric,[2],1.35 Log
same,Log reduction of antimicrobial performance in 300 GSM Polyester fabric,[2],1.48 Log
same,Log reduction of antimicrobial performance in 300 GSM cotton fabric,[2],1.35 Log
same,Log reduction of antimicrobial performance in 100 GSM Polyester fabric,[3],1.77 Log
same,Log reduction of antimicrobial performance in 100 GSM cotton fabric,[3],1.67 Log
same,Log reduction of antimicrobial performance in 300 GSM Polyester fabric,[3],1.79 Log
same,Log reduction of antimicrobial performance in 300 GSM cotton fabric,[3],1.67 Log
same,Log reduction of antimicrobial performance in 100 GSM Polyester fabric,[4],1.85 Log
same,Log reduction of antimicrobial performance in 100 GSM cotton fabric,[4],1.84 Log
same,Log reduction of antimicrobial performance in 300 GSM Polyester fabric,[4],1.85 Log
same,Log reduction of antimicrobial performance in 300 GSM cotton fabric,[4],1.87 Log
same,Log reduction of antimicrobial performance in 100 GSM Polyester fabric,[5],2.68 Log
same,Log reduction of antimicrobial performance in 100 GSM cotton fabric,[5],2.87 Log
same,Log reduction of antimicrobial performance in 300 GSM Polyester fabric,[5],2.65 Log
same,Log reduction of antimicrobial performance in 300 GSM cotton fabric,[5],2.88 Log
same,Log reduction of antimicrobial performance of each active ingredient,"exhaust 80° C., 60 min, dosage 1% o.w.f (test up to 5% o.w.f)",2.35 Log
same,Log reduction of antimicrobial performance of each active ingredient,"exhaust 80° C., 60 min, dosage 2% o.w.f",2.36 Log
same,Log reduction of antimicrobial performance of each active ingredient,"exhaust 80° C., 60 min, dosage 3% o.w.f",2.37 Log
same,Log reduction of antimicrobial performance of each active ingredient,"exhaust 80° C., 60 min, dosage 4% o.w.f",2.38 Log
same,Log reduction of antimicrobial performance of each active ingredient,"exhaust 80° C., 60 min, dosage 5% o.w.f",2.41 Log
same,Log reduction of antimicrobial performance of each active ingredient,"exhaust 80 ° C., solution dosage 1% o.w.f, process time 10 min",0.5 Log
same,Log reduction of antimicrobial performance of each active ingredient,"exhaust 80 ° C., solution dosage 1% o.w.f, process time 20 min",1 Log
same,Log reduction of antimicrobial performance of each active ingredient,"exhaust 80 ° C., solution dosage 1% o.w.f, process time 30 min",1.4 Log
same,Log reduction of antimicrobial performance of each active ingredient,"exhaust 80 ° C., solution dosage 1% o.w.f, process time 40 min",1.9 Log
same,Log reduction of antimicrobial performance of each active ingredient,"exhaust 80 ° C., solution dosage 1% o.w.f, process time 50 min",2.4 Log
same,Log reduction of antimicrobial performance of each active ingredient,"exhaust 80 ° C., solution dosage 1% o.w.f, process time 60 min",2.8 Log
same,Log reduction of antimicrobial performance of each active ingredient,"exhaust 80 ° C., solution dosage 1% o.w.f, process time 70 min",2.8 Log
same,Log reduction of antimicrobial performance of each active ingredient,"exhaust 80 ° C., solution dosage 1% o.w.f, process time 80 min",2.8 Log
same,Log reduction of antimicrobial performance of each active ingredient,"exhaust 80 ° C., solution dosage 1% o.w.f, process time 90 min",2.9 Log
same,Performance Test-Log reduction of antimicrobial performance,curing 120° C.,0.02 Log
same,Performance Test-Log reduction of antimicrobial performance,curing 140° C.,0.24 Log
same,Performance Test-Log reduction of antimicrobial performance,curing 150° C.,0.31 Log
same,Performance Test-Log reduction of antimicrobial performance,curing 160° C.,0.53 Log
